Measured values: article PMC9865601 (2023)

Columns and labels:
[1] = tested on: Htelo-C (DNA, i motif) TAACCCTAACCCTAACCCTAACCCTAA; assay: bio-layer interferometry; conditions: 50 mM KCl; 50 mM Tris-HCl, 2% DMSO, 0.05% P20; pH 5.5 (also pH 7.5); tested to 100 µM
[2] = tested on: c-myc (DNA, i motif) TCCCCACCTTCCCCACCCTCCCCACCCTCCCCA; assay: bio-layer interferometry; conditions: 50 mM KCl; 50 mM Tris-HCl, 2% DMSO, 0.05% P20; pH 5.5 (also pH 7.5); tested to 100 µM
[3] = tested on: ssDNA (DNA, single strand) GGCATAGTGCGTGGGCG; assay: bio-layer interferometry; conditions: 50 mM KCl; 50 mM Tris-HCl, 2% DMSO, 0.05% P20; tested up to 100 µM
[4] = tested on: HP-GC (DNA, hairpin) CGCGCGCGTTTTCGCGCGCG; assay: bio-layer interferometry; conditions: 50 mM KCl; 50 mM Tris-HCl, 2% DMSO, 0.05% P20; tested up to 100 µM
[5] = tested on: DAP-Mut (DNA, single strand) CTACCGCTAACGCCTTCGCTCTCGCTTTC; assay: bio-layer interferometry; conditions: 50 mM KCl; 50 mM Tris-HCl, 2% DMSO, 0.05% P20; tested up to 100 µM
[6] = tested on: HRAS (DNA, i motif) CGCCCGTGCCCTGCGCCCGCAACCCGA; assay: CD melting, heating ramp, 285 nm; conditions: 100 mM KCl; 10 mM LiAsO2Me2, pH 5.5; 2.5 µM oligo, 20 µM IMC-48
[7] = tested on: bcl-2 (DNA, i motif) CAGCCCCGCTCCCGCCCCCTTCCTCCCGCGCCCGCCCCT; assay: CD melting, heating ramp, 285 nm; conditions: 100 mM KCl; 10 mM LiAsO2Me2, pH 5.5; 2.5 µM oligo, 20 µM IMC-48
[8] = tested on: HTelo-C (DNA, i motif) TAACCCTAACCCTAACCCTAACCCTAA; assay: CD melting, heating ramp, 285 nm; conditions: 100 mM KCl; 10 mM LiAsO2Me2, pH 5.5; 2.5 µM oligo, 20 µM IMC-48
[9] = tested on: c-myc (DNA, i motif) TCCCCACCTTCCCCACCCTCCCCACCCTCCCCA; assay: CD melting, heating ramp, 285 nm; conditions: 100 mM KCl; 10 mM LiAsO2Me2, pH 5.5; 2.5 µM oligo, 20 µM IMC-48

- binding [1]: no
- binding [2]: no
- binding [3]: no
- binding [4]: no
- binding [5]: no
- ∆Tm [6]: −1.2 ± 1.1 °C
- ∆Tm [7]: 0.2 ± 0.4 °C
- ∆Tm [8]: −1.2 ± 0.5 °C
- ∆Tm [9]: −0.5 ± 0.1 °C
SMILES: CC(C)CCC[C@@H](C)[C@H]1CC[C@H]2[C@@H]3CC[C@H]4C[C@H](NC(=O)C[N+]5(C)CCCCC5)CC[C@]4(C)[C@H]3CC[C@]12C
